Experimental findings from US6878707B2, “Carboxamides useful as inhibitors of microsomal triglyceride transfer protein and of apolipoprotein b secretion” (Novartis AG, priority 2001, dated 2005) are described below.

In general, melting point refers to the temperature, or range, at which the solid turns liquid. In general, IC50 refers to the concentration needed to halve the response being measured.

Series [1] has as its system apolipoprotein B (apo B) secretion. The series is described as follows: apo B assay. The format is cell-based. The source says:
(§1) The corresponding relevant subject matter of said PCT application is herewith incorporated by reference into the present specification.

The target of series [2] is microsomal triglyceride transfer protein (MTP) (Homo sapiens, UniProt P55157). The series is described as follows: MTP assay. The format is biochemical.
Chain of microsomal triglyceride transfer protein (MTP) (P55157 19-894, species assumed): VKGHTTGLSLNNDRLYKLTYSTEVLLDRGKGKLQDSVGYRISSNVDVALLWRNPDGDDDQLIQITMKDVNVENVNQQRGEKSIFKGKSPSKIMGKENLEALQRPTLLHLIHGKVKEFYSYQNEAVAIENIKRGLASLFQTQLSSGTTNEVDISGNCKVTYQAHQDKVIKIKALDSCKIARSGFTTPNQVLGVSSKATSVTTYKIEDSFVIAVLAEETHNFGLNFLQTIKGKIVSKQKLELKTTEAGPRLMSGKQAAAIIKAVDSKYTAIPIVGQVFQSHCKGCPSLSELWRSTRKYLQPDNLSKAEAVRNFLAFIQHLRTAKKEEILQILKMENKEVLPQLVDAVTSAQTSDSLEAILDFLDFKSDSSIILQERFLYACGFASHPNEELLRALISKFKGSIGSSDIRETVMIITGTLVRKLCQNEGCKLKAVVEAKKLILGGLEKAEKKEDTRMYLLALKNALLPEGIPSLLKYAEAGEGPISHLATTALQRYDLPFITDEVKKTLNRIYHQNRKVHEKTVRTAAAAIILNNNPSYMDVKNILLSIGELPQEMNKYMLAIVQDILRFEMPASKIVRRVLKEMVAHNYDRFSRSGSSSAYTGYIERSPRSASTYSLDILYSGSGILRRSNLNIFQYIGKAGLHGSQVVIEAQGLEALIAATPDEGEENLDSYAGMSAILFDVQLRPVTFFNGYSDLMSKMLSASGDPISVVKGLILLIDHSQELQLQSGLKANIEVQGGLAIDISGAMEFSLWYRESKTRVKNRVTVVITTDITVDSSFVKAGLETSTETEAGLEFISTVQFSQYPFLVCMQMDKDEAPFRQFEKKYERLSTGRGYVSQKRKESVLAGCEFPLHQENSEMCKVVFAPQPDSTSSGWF
Chain of microsomal triglyceride transfer protein (MTP) (P07237 18-508 partner, species assumed): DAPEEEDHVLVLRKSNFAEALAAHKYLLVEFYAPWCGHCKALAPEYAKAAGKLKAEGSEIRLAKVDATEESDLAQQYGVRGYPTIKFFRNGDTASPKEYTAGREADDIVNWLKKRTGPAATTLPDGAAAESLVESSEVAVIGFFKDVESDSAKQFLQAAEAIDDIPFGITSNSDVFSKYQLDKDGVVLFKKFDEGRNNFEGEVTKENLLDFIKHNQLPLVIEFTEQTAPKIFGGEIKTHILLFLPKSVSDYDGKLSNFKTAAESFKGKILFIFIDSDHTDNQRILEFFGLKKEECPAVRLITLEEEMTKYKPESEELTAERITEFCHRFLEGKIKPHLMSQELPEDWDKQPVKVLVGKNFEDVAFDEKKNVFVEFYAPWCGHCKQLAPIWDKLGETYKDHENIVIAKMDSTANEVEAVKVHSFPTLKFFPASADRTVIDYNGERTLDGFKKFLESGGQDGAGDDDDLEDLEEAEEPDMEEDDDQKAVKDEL
Text: as §1

The nature of series [3]: in vivo lowering of plasma triglycerides and cholesterol. The settings on record: dose of 5 mg/kg p.o.
Text: as §1

Compound `COC(=O)N1CCN(C2Cc3ccc(NC(=O)c4cccc(C)c4-c4ccc(C(F)(F)F)cc4)cc3C2)CC1` (racemic) [Example 1, 6-Methyl-4′-trifluoromethyl-1,1′-biphenyl-N-[2[4-(methoxycarbonyl)-piperazino]-indan-5-yl]-2-carboxamide] displayed a melting point of 161 to 163 °C.

Consider `Cc1cccc(C(=O)Nc2ccc3c(c2)CC(N2CCN(c4ccccc4)CC2)C3)c1-c1ccc(C(F)(F)F)cc1` (stereo not drawn) [Example 2], for which the melting point was in the range of 236 to 238 °C.

Turning to `Cc1cccc(C(=O)Nc2ccc3c(c2)CC(N2CCN(C)CC2)C3)c1-c1ccc(C(F)(F)F)cc1` (stereo not drawn) [Example 3], the melting point is 209 to 210 °C.

The compound `Cc1cccc(C(=O)Nc2ccc3c(c2)CC(N2CCN(Cc4ccccc4)CC2)C3)c1-c1ccc(C(F)(F)F)cc1` (stereo not drawn) [Example 4] displayed a melting point of 188 to 191 °C.

In turn, `COC(=O)N1CCN(C2Cc3ccc(NC(=O)c4cccc(C(F)(F)F)c4-c4ccc(C(F)(F)F)cc4)cc3C2)CC1` (stereo not drawn) [Example 5] displayed a melting point of 210 to 212 °C.

The compound `COC(=O)N1CCN(C2Cc3ccc(NC(=O)c4ccccc4-c4ccc(C(F)(F)F)cc4)cc3C2)CC1` (stereo not drawn) [Example 6] yielded a melting point of 204 to 206 °C.

Regarding `Cc1cccc(C(=O)Nc2ccc3c(c2)CC(N2CCOCC2)C3)c1-c1ccc(C(F)(F)F)cc1` (stereo not drawn) [Example 7], the melting point lay within 201 to 204 °C.

Compound `O=C(Nc1ccc2c(c1)CC(N1CCOCC1)C2)c1ccccc1-c1ccc(C(F)(F)F)cc1` (stereo not drawn) [Example 8] registered a melting point of 191 to 194 °C.

In the case of `COC(=O)C1CCN(C2Cc3ccc(NC(=O)c4cccc(C)c4-c4ccc(C(F)(F)F)cc4)cc3C2)CC1` (stereo not drawn) [Example 9], the melting point fell in the range of 191 to 195 °C.

Compound `COC1CCN(C2Cc3ccc(NC(=O)c4cccc(C)c4-c4ccc(C(F)(F)F)cc4)cc3C2)CC1` (stereo not drawn) [Example 10] had a melting point of 197 to 199 °C.

In the case of `Cc1cccc(C(=O)Nc2ccc3c(c2)CC(N2CCC4(CC2)OCCO4)C3)c1-c1ccc(C(F)(F)F)cc1` (stereo not drawn) [Example 11], the melting point was in the range of 202 to 203 °C.

The compound `Cc1cccc(C(=O)Nc2ccc3c(c2)CC(N2CCC(C)CC2)C3)c1-c1ccc(C(F)(F)F)cc1` (stereo not drawn) [Example 12] displayed a melting point of 219 to 221 °C.

`COC(=O)N1CCN(C2Cc3ccc(NC(=O)c4cccc(OC)c4-c4ccc(F)cc4)cc3C2)CC1` (stereo not drawn) [Example 13]: the melting point is 132 to 134 °C.

On to `COC(=O)N1CCN([C@@H]2Cc3ccc(NC(=O)c4cccc(C)c4-c4ccc(C(F)(F)F)cc4)cc3C2)CC1` [Example 14, (R)-6-Methyl-4′-trifluoromethyl-1,1′-biphenyl-N-[2-[4-(methoxycarbonyl)-piperazino]indan-5-yl]-2-carboxamide], for which the melting point was in the range of 163 to 164 °C. The concentration for half-maximal inhibition (IC50) in series [1] is about 2 nM. This compound also had a concentration for half-maximal inhibition (IC50) in series [2] of about 40 nM. Also, in series [3], the plasma cholesterol entry is recorded as “lowers” and the plasma triglycerides entry is reported as “lowers”.

The compound `CCCC(=O)N1CCN(C2Cc3ccc(NC(=O)c4cccc(C)c4-c4ccc(C(F)(F)F)cc4)cc3C2)CC1` (stereo not drawn) [Example 21] came in with a melting point of 173 to 176 °C.

Compound `CC(=O)N1CCN(C2Cc3ccc(NC(=O)c4cccc(C(F)(F)F)c4-c4ccc(C(F)(F)F)cc4)cc3C2)CC1` (stereo not drawn) [Example 22] came in with a melting point of 184 to 186 °C.

The compound `Cc1ccc(S(=O)(=O)N2CCN(C3Cc4ccc(NC(=O)c5cccc(C)c5-c5ccc(C(F)(F)F)cc5)cc4C3)CC2)cc1` (stereo not drawn) [Example 23] came in with a melting point of 153 to 154 °C.

As for `Cc1cccc(C(=O)Nc2ccc3c(c2)CC(N2CCN(S(C)(=O)=O)CC2)C3)c1-c1ccc(C(F)(F)F)cc1` (stereo not drawn) [Example 24], the melting point fell in the range of 205 to 208 °C.

Consider `Cc1cccc(C(=O)Nc2ccc3c(c2)CC(N2CCN(C(=O)c4ccncc4)CC2)C3)c1-c1ccc(C(F)(F)F)cc1` (stereo not drawn) [Example 25], for which the melting point fell in the range of 158 to 160 °C.

In the case of `COCC(=O)N1CCN(C2Cc3ccc(NC(=O)c4cccc(C)c4-c4ccc(C(F)(F)F)cc4)cc3C2)CC1` (stereo not drawn) [Example 26], the melting point was in the range of 161 to 162 °C.

Regarding `Cc1cccc(C(=O)Nc2ccc3c(c2)CC(N2CCN(C(=O)N(C)C)CC2)C3)c1-c1ccc(C(F)(F)F)cc1` (stereo not drawn) [Example 27], the melting point lay in the range of 217 to 218 °C.

With `Cc1cccc(C(=O)Nc2ccc3c(c2)CC(N2CCN(C(=O)c4ccccc4)CC2)C3)c1-c1ccc(C(F)(F)F)cc1` (stereo not drawn) [Example 28], the melting point lay in the range of 120 to 123 °C.

`Cc1cccc(C(=O)Nc2ccc3c(c2)CC(N2CCN(C(=O)COCc4ccccc4)CC2)C3)c1-c1ccc(C(F)(F)F)cc1` (stereo not drawn) [Example 29]: the melting point was 160 to 161 °C.

In turn, `Cc1cccc(C(=O)Nc2ccc3c(c2)CC(N2CCN(C(=O)CO)CC2)C3)c1-c1ccc(C(F)(F)F)cc1` (stereo not drawn) [Example 30] had a melting point of 86 to 88 °C.

In turn, `Cc1cccc(C(=O)Nc2ccc3c(c2)CC(N2CCN(Cc4ccccn4)CC2)C3)c1-c1ccc(C(F)(F)F)cc1` (stereo not drawn) [Example 31, 6-methyl-4′-trifluoromethyl-1,1′-biphenyl-N-[2-[4-(2-pyridinylmethyl)piperazino]indan-5-yl]-2-carboxamide] had a melting point of 190 to 194 °C.

With `COC(=O)N1CCN(C2Cc3ccc(NC(=O)c4cccc(C)c4-c4ccc(F)cc4)cc3C2)CC1` (stereo not drawn) [Example 37], the melting point was 141 to 142 °C.

`COC(=O)N1CCN(C2Cc3ccc(NC(=O)c4cccc(OC)c4-c4ccc(C(F)(F)F)cc4)cc3C2)CC1` (stereo not drawn) [Example 38] had a melting point of 176 to 178 °C.

Regarding `COC(=O)N1CCN(C2Cc3ccc(NC(=O)c4ccccc4-c4ccccc4)cc3C2)CC1` (stereo not drawn) [Example 39], the melting point fell in the range of 164 to 168 °C.

The compound `COC(=O)N1CCN(C2Cc3ccc(NC(=O)c4ccccc4-c4ccc(C)cc4)cc3C2)CC1` (stereo not drawn) [Example 41] returned a melting point of 136 to 138 °C.
